pIC50: −log10 of the molar value.

BACE1, sequence (P56817 46-501): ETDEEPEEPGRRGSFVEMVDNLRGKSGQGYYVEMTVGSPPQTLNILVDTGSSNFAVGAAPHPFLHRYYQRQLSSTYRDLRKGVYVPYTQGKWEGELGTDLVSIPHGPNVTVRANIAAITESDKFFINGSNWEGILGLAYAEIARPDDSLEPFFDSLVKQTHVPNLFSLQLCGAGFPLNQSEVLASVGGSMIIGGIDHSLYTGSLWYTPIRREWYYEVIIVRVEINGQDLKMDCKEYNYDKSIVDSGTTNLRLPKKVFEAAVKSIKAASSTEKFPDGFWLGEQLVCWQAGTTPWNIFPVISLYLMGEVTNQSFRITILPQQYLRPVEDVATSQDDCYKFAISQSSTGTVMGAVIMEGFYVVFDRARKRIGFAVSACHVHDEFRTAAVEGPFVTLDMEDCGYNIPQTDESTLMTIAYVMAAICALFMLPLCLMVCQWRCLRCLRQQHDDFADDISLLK

The test addresses BACE1 (Homo sapiens (Human), UniProt P56817). Briefly: Cellular Aβ-lowering assay (Abeta 40 AlphaLISA Assay). In kind it is cell-based. The settings on record: HEK293 APP cells, Aβ40 in culture supernatant after 18-20 hrs incubation. As to the method: Cellular Aβ-Lowering Assay:
The Abeta 40 AlphaLISA Assay can be used. The HEK293 APP cells were seeded in 96 well Microtiter plates in cell culture medium (Iscove's, plus 10% (v/v) fetal bovine serum, penicillin/streptomycin) to about 80% confluency and the compounds were added at a 3× concentration in ⅓ volume of culture medium (final DMSO concentration was kept at 1% v/v). After 18-20 hrs incubation at 37° C. and 5% CO2 in a humidified incubator, the culture supernatants were harvested for the determination of Aβ40 concentrations using Perkin-Elmer Human Amyloid beta 1-40 (high specificity) Kit (Cat# AL275C).
In a Perkin-Elmer White Optiplate-384 (Cat#6007290), 2 ul culture supernatants were combined with 2μl of a 10× AlphaLISA Anti-hAβAcceptor beads+Biotinylated Antibody Anti-Aβ1-40 Mix (50 μg/mL/5 nM). After 1 hour room temperature incubation, 16 μl of a 1.25× preparation of Streptavidin (SA) Donor beads (25 μg/mL) were added and incubated for 30 minutes in the Dark. Light Emission at 615 nm was then recorded using EnVision-Alpha Reader. Levels of Aβ40 in the culture supernatants were calculated as percentage of maximum signal (cells treated with 1% DMSO without inhibitor). The IC50 values were calculated using the Excel XLfit software.
As for `CC1(c2cc(NC(=O)c3ccc(C#N)cn3)ccc2F)CS2(=O)=NCCCCN2C(N)=N1` (stereo in doubt) [Example 1, 5-cyano-pyridine-2-carboxylic acid [3-((3RS,4aRS)-1-amino-3-methyl-4a-oxo-3,4,6,7,8,9-hexahydro-4aλ^6-thia-2,5,9a-triaza-benzocyclohepten-3-yl)-4-fluoro-phenyl]-amide], the pIC50 is 7.35. For `C[C@@]1(c2cc(-c3cc(-c4ncc(Cl)cn4)no3)ccc2F)C[S@@]2(=O)=NCCCCN2C(N)=N1` [Example 13, (9R,11R)-7-Amino-9-(5-(3-(5-chloropyrimidin-2-yl)isoxazol-5-yl)-2-fluorophenyl)-9-methyl-2,3,4,5,9,10-hexahydro-[1,2,4]thiadiazino[1,2-a][1,2,7]thiadiazepine 11-oxide 2,2,2-trifluoroacetate] the value was 7.92; for `C[C@@]1(c2cc(-c3cc(-c4cnc(OCC(F)F)cn4)no3)ccc2F)C[S@@]2(=O)=NCCCCN2C(N)=N1` [Example 19, (9R,11R)-7-Amino-9-(5-(3-(5-(2,2-difluoroethoxy)pyrazin-2-yl)isoxazol-5-yl)-2-fluorophenyl)-9-methyl-2,3,4,5,9,10-hexahydro-[1,2,4]thiadiazino[1,2-a][1,2,7]thiadiazepine 11-oxide 2,2,2-trifluoroacetate], 7.85.

Compound `CC#CCOc1cnc(C(=O)Nc2ccc(F)c([C@]3(C)CS4(=O)=NCCCCN4C(N)=N3)c2)cn1` (stereo in doubt) [Example 22, 5-But-2-ynyloxy-pyrazine-2-carboxylic acid [3-((3R,4aS)-1-amino-3-methyl-4a-oxo-3,4,6,7,8,9-hexahydro-4aλ^6-thia-2,5,9a-triaza-benzocyclohepten-3-yl)-4-fluoro-phenyl]-amide] gave a pIC50 of 9.70. The same measure for `C[C@@]1(c2cc(C#Cc3ccc(C#N)cc3)ccc2F)C[S@@]2(=O)=NCCCCN2C(N)=N1` [Example 16, 4-((3-((9R,11R)-7-amino-9-methyl-11-oxido-2,3,4,5,9,10-hexahydro-[1,2,4]thiadiazino[1,2-a][1,2,7]thiadiazepin-9-yl)-4-fluorophenyl)ethynyl)benzonitrile 2,2,2-trifluoroacetate]: 7.68; for `C[C@@]1(c2cc(-c3cc(-c4ncc(Cl)cn4)no3)ccc2F)C[S@]2(=O)=NCCCCN2C(N)=N1` [Example 14, (9R,11S)-7-Amino-9-(5-(3-(5-chloropyrimidin-2-yl)isoxazol-5-yl)-2-fluorophenyl)-9-methyl-2,3,4,5,9,10-hexahydro-[1,2,4]thiadiazino[1,2-a][1,2,7]thiadiazepine 11-oxide 2,2,2-trifluoroacetate]: 7.02; for `C[C@@]1(c2cc(NC(=O)c3ccc(OCC(F)(F)F)cn3)ccc2F)CS2(=O)=NCCCCN2C(N)=N1` (stereo in doubt) [Example 21, 5-(2,2,2-Trifluoro-ethoxy)-pyridine-2-carboxylic acid [3-((3R,4aS)-1-amino-3-methyl-4a-oxo-3,4,6,7,8,9-hexahydro-4aλ^6-thia-2,5,9a-triaza-benzocyclohepten-3-yl)-4-fluoro-phenyl]-amide]: 8.00. For the compound `C[C@@]1(c2cc(-c3cn(-c4ccc(C#N)cn4)nn3)ccc2F)C[S@]2(=O)=NCCCCN2C(N)=N1` [Example 15, 6-(4-(3-((9R,11S)-7-Amino-9-methyl-11-oxido-2,3,4,5,9,10-hexahydro-[1,2,4]thiadiazino[1,2-a][1,2,7]thiadiazepin-9-yl)-4-fluorophenyl)-1H-1,2,3-triazol-1-yl)nicotinonitrile 2,2,2-trifluoroacetate], the pIC50 was 7.02. For `CC1(c2cc(NC(=O)c3ccc(C#N)cn3)ccc2F)CS2(=O)=NCCCCN2C(N)=N1` (stereo in doubt) [Example 2, 5-cyano-pyridine-2-carboxylic acid [3-((3RS,4aSR)-1-amino-3-methyl-4a-oxo-3,4,6,7,8,9-hexahydro-4aλ^6-thia-2,5,9a-triaza-benzocyclohepten-3-yl)-4-fluoro-phenyl]-amide] the value was 8.70; for `Cc1cc(C#N)cnc1C(=O)Nc1ccc(F)c([C@]2(C)CS3(=O)=NCC(F)(F)CN3C(N)=N2)c1` (stereo partly drawn) [Example 25, N-(3-((8R)-6-amino-3,3-difluoro-8-methyl-10-oxido-3,4,8,9-tetrahydro-2H-[1,2,6]thiadiazino[1,2-a][1,2,4]thiadiazin-8-yl)-4-fluorophenyl)-5-cyano-3-methylpicolinamide], 8.70. Turning to `C[C@@]1(c2cc(NC(=O)c3ncc(C#N)cc3Cl)ccc2F)CS2(=O)=NCCCCN2C(N)=N1` (stereo in doubt) [Example 20, 3-Chloro-5-cyano-pyridine-2-carboxylic acid [3-((3R,4aS)-1-amino-3-methyl-4a-oxo-3,4,6,7,8,9-hexahydro-4aλ^6-thia-2,5,9a-triaza-benzocyclohepten-3-yl)-4-fluoro-phenyl]-amide], the pIC50 was 9.00.

`COc1cnc(-c2cc(-c3ccc(F)c([C@]4(C)C[S@]5(=O)=NCCCCN5C(N)=N4)c3)on2)cn1` [Example 18, (9R,11S)-7-amino-9-(2-fluoro-5-(3-(5-methoxypyrazin-2-yl)isoxazol-5-yl)phenyl)-9-methyl-2,3,4,5,9,10-hexahydro-[1,2,4]thiadiazino[1,2-a][1,2,7]thiadiazepine 11-oxide 2,2,2-trifluoroacetate] gave a pIC50 of 6.16. The same measure for `CC1(c2ccccc2F)CS2(=O)=NCCCCN2C(N)=N1` (stereo in doubt) [Example A20a2, (3RS,4aSR)-3-(2-Fluoro-phenyl)-3-methyl-4a-oxo-3,4,6,7,8,9-hexahydro-4aλ^6-thia-2,5,9a-triaza-benzocyclohepten-1-ylamine]: 5.98; for `COc1cnc(-c2cc(-c3ccc(F)c([C@]4(C)C[S@@]5(=O)=NCCCCN5C(N)=N4)c3)on2)cn1` [Example 17, (9R,11R)-7-Amino-9-(2-fluoro-5-(3-(5-methoxypyrazin-2-yl)isoxazol-5-yl)phenyl)-9-methyl-2,3,4,5,9,10-hexahydro-[1,2,4]thiadiazino[1,2-a][1,2,7]thiadiazepine 11-oxide 2,2,2-trifluoroacetate]: 8.05; for `Cc1cc(F)cnc1C(=O)Nc1ccc(F)c([C@]2(C)CS3(=O)=NCCCCN3C(N)=N2)c1` (stereo in doubt) [Example 23, 5-Fluoro-3-methyl-pyridine-2-carboxylic acid [3-((3R,4aS)-1-amino-3-methyl-4a-oxo-3,4,6,7,8,9-hexahydro-4aλ^6-thia-2,5,9a-triaza-benzocyclohepten-3-yl)-4-fluoro-phenyl]-amide]: 8.82.
